In patent US11198691B2, “N-((het)arylmethyl)-heteroaryl-carboxamides compounds as kallikrein inhibitors” (KalVista Pharmaceuticals Limited, priority 2014, dated 2021):

Molecular target: Human FXIa (Homo sapiens (Human), UniProt P03951)
Experiment: Determination of the % inhibition for FXIa
Type: biochemical
Details: 40 μM test compound, 25° C., substrate Z-Gly-Pro-Arg-AFC
Description: Determination of the % inhibition for FXIa
Human FXIa (Enzyme Research Laboratories) was incubated at 25° C. with the fluorogenic substrate Z-Gly-Pro-Arg-AFC and 40 μM of the test compound. Residual enzyme activity (initial rate of reaction) was determined by measuring the change in […].

Human FXIa, sequence (P03951 388-625): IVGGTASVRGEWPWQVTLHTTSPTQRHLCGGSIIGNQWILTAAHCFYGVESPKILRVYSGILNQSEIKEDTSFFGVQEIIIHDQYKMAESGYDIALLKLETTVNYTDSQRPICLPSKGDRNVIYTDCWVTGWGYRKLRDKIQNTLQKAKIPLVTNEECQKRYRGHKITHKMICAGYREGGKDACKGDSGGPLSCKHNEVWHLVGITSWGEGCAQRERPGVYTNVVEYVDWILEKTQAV
Human FXIa, sequence (P03951 19-387 partner): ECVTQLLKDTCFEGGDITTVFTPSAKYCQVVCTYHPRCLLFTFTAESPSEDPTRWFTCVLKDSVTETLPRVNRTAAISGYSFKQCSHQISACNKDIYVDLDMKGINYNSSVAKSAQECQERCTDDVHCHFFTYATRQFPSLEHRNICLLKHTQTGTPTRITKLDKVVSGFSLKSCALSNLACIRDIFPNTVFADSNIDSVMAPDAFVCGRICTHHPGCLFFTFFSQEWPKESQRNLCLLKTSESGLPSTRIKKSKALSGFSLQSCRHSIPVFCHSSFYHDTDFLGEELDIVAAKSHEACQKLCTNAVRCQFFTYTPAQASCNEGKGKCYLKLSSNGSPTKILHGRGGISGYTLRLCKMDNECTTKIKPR

| % Inhibition @ 40 μM (human FXIa) | Compound |
| --- | --- |
| 0% | Nc1nn(Cc2ccc(Cn3ccccc3=O)cc2)cc1C(=O)NCc1ccc(OC(F)(F)F)cc1 [Example 58, 3-amino-1-({4-[(2-oxopyridin-1-yl)methyl]phenyl}methyl)-N-{[4-(trifluoromethoxy)phenyl]methyl}pyrazole-4-carboxamide] |
| 0% | NC(=O)c1cccc(CNC(=O)c2cn(Cc3ccc(Cn4ccccc4=O)cc3)nc2C2CC2)c1 [Example 49, N-[(3-carbamoylphenyl)methyl]-3-cyclopropyl-1-({4-[(2-oxopyridin-1-yl)methyl]phenyl}methyl)pyrazole-4-carboxamide] |

| Compound | % Inhibition @ 40 μM (human FXIa) |
| --- | --- |
| COc1cccc(CNC(=O)c2cn(Cc3ccc(Cn4ccccc4=O)cc3)nc2C2CC2)c1F [Example 52, 3-cyclopropyl-N-[(2-fluoro-3-methoxyphenyl)methyl]-1-({4-[(2-oxopyridin-1-yl)methyl]phenyl}methyl)pyrazole-4-carboxamide] | 1% |
